# According to US6407116B1, “Nitrogenous fused-ring compounds, process for the preparation of the same, and drugs” (Takeda Chemical Industries, Inc., priority 1997, dated 2002):
# Where a name gives a salt, the structure may show the parent alone.
# System: not given
# Assay: not given
# Details: not given
row,Structure (SMILES),melting point [°C]
1,Cl.O=c1[nH]c(=O)n(CCCCN2CCC(c3c[nH]c4ccccc34)CC2)c2ccccc12,250 to 252
2,Cl.Cn1c(=O)c2ccccc2n(CCCN2CCC(OC(c3ccccc3)c3ccccc3)CC2)c1=O,127 to 128
3,Cl.O=c1c2ccccc2n(CCCCN2CCC(OC(c3ccccc3)c3ccccc3)CC2)c(=O)n1C1CCCCC1,206 to 208
4,Cl.O=c1[nH]c(=O)n(CCCCN2CCN(C(c3ccccc3)c3ccccc3)CC2)c2ccccc12,161 to 163
5,COC(=O)C1(n2c(=O)c3ccccc3n(CCCCN3CCC(OC(c4ccccc4)c4ccccc4)CC3)c2=O)CCCC1.Cl,178 to 180
6,"N#CCCCCn1c(=O)c2ccccc2n(CCCCN2CCC(OC(c3ccccc3)c3ccccc3)CC2)c1=O (as salt: hydrochloride) [Example 93, 2,4-Dioxo-1-[4-(4-diphenylmethoxypiperidino)butyl]-1,2,3,4-tetrahydroquinazoline-3-valeronitrile]",119 to 121
7,"COC(=O)Cn1c(=O)c2ccccc2n(CCCN2CCC(OC(c3ccccc3)c3ccccc3)CC2)c1=O [Example 14, Methyl 2,4-dioxo-1-[3-(4-diphenylmethoxypiperidino)propyl]-1,2,3,4-tetrahydroquinazoline-3-acetate]",109 to 110
8,"COC(=O)Cn1c(=O)c2ccccc2n(CCCCN2CCC(OC(c3ccccc3)c3ccccc3)CC2)c1=O [Example 15, Methyl 2,4-dioxo-1-[4-(4-diphenylmethoxypiperidino)butyl]-1,2,3,4-tetrahydroquinazoline-3-acetate]",91 to 93
9,"O=C(O)Cn1c(=O)c2ccccc2n(CCCN2CCC(OC(c3ccccc3)c3ccccc3)CC2)c1=O [Example 49, 2,4-Dioxo-1-[3-(4-diphenylmethoxypiperidino)propyl]-1,2,3,4-tetrahydroquinazoline-3-acetic acid]",170 to 172
10,"O=C(O)CCn1c(=O)c2ccccc2n(CCCN2CCC(OC(c3ccccc3)c3ccccc3)CC2)c1=O [Example 51, 2,4-Dioxo-1-[3-(4-diphenylmethoxypiperidino)propyl]-1,2,3,4-tetrahydroquinazoline-3-propionic acid]",150 to 151
11,"O=C(O)CCn1c(=O)n(CCCN2CCC(OC(c3ccccc3)c3ccccc3)CC2)c(=O)c2ccccc21 [Example 75, 2,4-Dioxo-3-[3-(4-diphenylmethoxypiperidino)propyl]-1,2,3,4-tetrahydroquinazoline-1-propionic acid]",237 to 238
12,"O=C(O)CCCn1c(=O)n(CCCCN2CCC(OC(c3ccccc3)c3ccccc3)CC2)c(=O)c2ccccc21 [Example 78, 2,4-Dioxo-3-[4-(4-diphenylmethoxypiperidino)butyl]-1,2,3,4-tetrahydroquinazoline-1-butyric acid]",227 to 229
13,"O=c1[nH]c2ccccc2c(=O)n1CCCN1CCC(OC(c2ccccc2)c2ccccc2)CC1 [Example 79, 2,4-Dioxo-3-[3-(4-diphenylmethoxypiperidino)propyl]-1,2,3,4-tetrahydroquinazoline]",173 to 175
14,"N#Cn1c(=O)c2ccccc2n(CCCCN2CCC(OC(c3ccccc3)c3ccccc3)CC2)c1=O [Example 92, 2,4-Dioxo-1-[4-(4-diphenylmethoxypiperidino)butyl]-1,2,3,4-tetrahydroquinazoline-3-carbonitrile]",106 to 107

# Continued, values first:
row,melting point [°C],Structure (SMILES)
1,121 to 123,Cl.O=c1[nH]c(=O)n(CCCCN2CCC(OC(c3ccccc3)c3ccccc3)CC2)c2ncccc12
2,225 to 227,CS(=O)(=O)Nc1ccc2c(c1)c(=O)[nH]c(=O)n2CCCCN1CCC(OC(c2ccccc2)c2ccccc2)CC1.Cl
3,223 to 225,COC(=O)C(C)(C)c1ccc2c(c1)c(=O)[nH]c(=O)n2CCCCN1CCC(OC(c2ccccc2)c2ccccc2)CC1.Cl
4,149 to 151,"O=c1[nH]c(=O)n(CCCN2CCC(OC(c3ccccc3)c3ccccc3)CC2)c2ccccc12 [Example 1, 2,4-Dioxo-1-[3-(4-diphenylmethoxy-1-piperidinyl)propyl]-1,2,3,4-tetrahydroquinazoline]"
5,173 to 174,"O=c1[nH]c(=O)n(CCCCCN2CCC(OC(c3ccccc3)c3ccccc3)CC2)c2ccccc12 [Example 3, 2,4-Dioxo-1-[5-(4-diphenylmethoxy-1-piperidinyl)pentyl]-1,2,3,4-tetrahydroquinazoline]"
6,169 to 171,"O=c1[nH]c(=O)n(CCCCN2CCC(OC(c3ccccc3)c3ccccc3)CC2)c2cc(Cl)ccc12 [Example 9, 7-Chloro-2,4-dioxo-1-[4-(4-diphenylmethoxypiperidino)butyl]-1,2,3,4-tetrahydroquinazoline]"
7,214 to 215,"O=c1[nH]c(=O)n(CCCCN2CCC(OC(c3ccccc3)c3ccccc3)CC2)c2cc([N+](=O)[O-])ccc12 [Example 11, 2,4-Dioxo-1-[4-(4-diphenylmethoxypiperidino)butyl]-7-nitro-1,2,3,4-tetrahydroquinazoline]"
8,162 to 164,"Nc1ccc2c(=O)[nH]c(=O)n(CCCCN3CCC(OC(c4ccccc4)c4ccccc4)CC3)c2c1 [Example 39, 7-Amino-2,4-dioxo-1-[4-(4-diphenylmethoxypiperidino)butyl]-1,2,3,4-tetrahydroquinazoline]"
9,165 to 167,"CN(C)c1ccc2c(c1)c(=O)[nH]c(=O)n2CCCCN1CCC(OC(c2ccccc2)c2ccccc2)CC1 [Example 42, 6-Dimethylamino-2,4-dioxo-1-[4-(4-diphenylmethoxypiperidino)butyl]-1,2,3,4-tetrahydroquinazoline]"
10,166 to 168,"O=C(O)CC(=O)Nc1ccc2c(c1)c(=O)[nH]c(=O)n2CCCCN1CCC(OC(c2ccccc2)c2ccccc2)CC1 [Example 48, [2,4-Dioxo-1-[4-(4-diphenylmethoxypiperidino)butyl]-1,2,3,4-tetrahydro-6-quinazolinyl]carbamoylacetic acid]"
11,184 to 186,"O=C(O)Cn1c(=O)c2ccccc2n(CCCCN2CCC(OC(c3ccccc3)c3ccccc3)CC2)c1=O [Example 50, 2,4-Dioxo-1-[4-(4-diphenylmethoxypiperidino)butyl]-1,2,3,4-tetrahydroquinazoline-3-acetic acid]"
12,153 to 155,"O=C(O)Cn1c(=O)n(CCCCN2CCC(OC(c3ccccc3)c3ccccc3)CC2)c(=O)c2ccccc21 [Example 72, 2,4-Dioxo-3-[4-(4-diphenylmethoxypiperidino)butyl]-1,2,3,4-tetrahydroquinazoline-1-acetic acid]"
13,110 to 112,"O=C(O)CCn1c(=O)n(CCCCN2CCC(OC(c3ccccc3)c3ccccc3)CC2)c(=O)c2ccccc21 [Example 76, 2,4-Dioxo-3-[4-(4-diphenylmethoxypiperidino)butyl]-1,2,3,4-tetrahydroquinazoline-1-propionic acid]"
14,140 to 142,"O=c1[nH]c2ccccc2c(=O)n1CCCCN1CCC(OC(c2ccccc2)c2ccccc2)CC1 [Example 80, 2,4-Dioxo-3-[4-(4-diphenylmethoxypiperidino)butyl]-1,2,3,4-tetrahydroquinazoline]"
15,192 to 194,"COC(=O)c1ccc2c(=O)[nH]c(=O)n(CCCCN3CCC(OC(c4ccccc4)c4ccccc4)CC3)c2c1 [Example 85, Methyl 2,4-dioxo-1-[4-(4-diphenylmethoxypiperidino)butyl]-1,2,3,4-tetrahydroquinazoline-7-carboxylate]"
16,161 to 163,"O=C(O)c1ccc2c(c1)c(=O)[nH]c(=O)n2CCCCN1CCC(OC(c2ccccc2)c2ccccc2)CC1 [Example 89, 2,4-Dioxo-1-[4-(4-diphenylmethoxypiperidino)butyl]-1,2,3,4-tetrahydroquinazoline-6-carboxylic acid]"
17,177 to 179,"O=C(O)c1ccc2c(=O)[nH]c(=O)n(CCCCN3CCC(OC(c4ccccc4)c4ccccc4)CC3)c2c1 [Example 90, 2,4-Dioxo-1-[4-(4-diphenylmethoxypiperidino)butyl]-1,2,3,4-tetrahydroquinazoline-7-carboxylic acid]"
18,234 to 236,"O=C(O)CCCCn1c(=O)c2cc(O)ccc2n(CCCCN2CCC(OC(c3ccccc3)c3ccccc3)CC2)c1=O [Example 105, 2,4-Dioxo-1-[4-(4-diphenylmethoxypiperidino)butyl]-6-hydroxy-1,2,3,4-tetrahydroquinazoline-3-valeric acid]"

# System: guinea-pig eosinophils
# Assay: Chemotaxis inhibition assay: LTB4-induced chemotaxis in guinea-pig eosinophils
# Type: cell-based
# Details: test substance 1×10^−5 M, LTB4 10^−8 M, 2 hours
# Protocol: 1) Guinea-pig Eosinophil Preparation
# Male Hartley guinea-pigs received 2 ml of equine serum (Bio-Whittaker, Inc) intraperitoneally once a week for successive 8 weeks. 48 hours after the last administration, 75 ml of physiological saline was injected into the peritoneal cavity, and the fluid was recovered and centrifuged at 400 G for 5 minutes. […] Erythrocytes in the isolated cell pellet, if any, were removed by hypotonic treatment (suspended in water for 30 seconds).
# 2) Chemotaxis Inhibition Assay
# 600 μl of LTB4 suspended in Hanks-Hepes-HSA (final concentration of 10^−8 M, Cascade Biochemical Ltd.) was placed in the lower compartment of a 24-well plate and kept at 37° C. for 30 minutes in a CO2 gas incubator. After mounting a Chemotaxicell (polycarbonate membrane, pore size 3 μm, thickness 10 μm), which served as an upper compartment, on the 24-well plate described above, 200 μl of eosinophil suspension (5×10^6 cells/ml), which had been incubated at 37° C. for 15 minutes in a thermostat chamber, was added to the upper compartment. After allowing to react for 2 hours in the CO2 gas incubator, the Chemotaxicell was removed, and 60 μl of 2% (w/v) EDTA solution in physiological saline was added to the lower compartment. After cooling on ice, the cells which underwent the chemotaxis into the lower compartment were counted using a blood cell counter (Coulter Counter (trade name)). In the procedure described above, the test substance was dissolved in N,N-dimethylformamide (DMF) and added to the upper and lower compartments at the final concentration of 10^−5 M.
# % Chemotaxis inhibition=[…] [Equation 2]
# The results are shown in [Table 2].
row,Structure (SMILES),Inhibition (%) of LTB4-induced chemotaxis [%]
1,"CC(=O)OCC(=O)Nc1ccc2c(c1)c(=O)[nH]c(=O)n2CCCCN1CCC(OC(c2ccccc2)c2ccccc2)CC1 [Example 46, 6-Acetoxyacetamide-2,4-dioxo-1-[4-(4-diphenylmethoxypiperidino)butyl]-1,2,3,4-tetrahydroquinazoline]",52
2,"CN(CCc1ccccc1)C(=O)Cn1c(=O)c2ccccc2n(CCCCN2CCC(OC(c3ccccc3)c3ccccc3)CC2)c1=O.Cl [Example 56, 2,4-Dioxo-1-[4-(4-diphenylmethoxypiperidino)butyl]-N-methyl-N-(2-phenethyl)-1,2,3,4-tetrahydroquinazoline-3-acetamide hydrochloride]",73
